Assay results published in patent US20230192701A1, “BICYCLIC KINASE INHIBITORS AND USES THEREOF” (iOmx Therapeutics AG, priority 2020, published 2023).

Key:
SIK2 = SIK2 (Homo sapiens, UniProt Q9H0K1); test: radiometric protein kinase assay (33PanQinase Activity Assay), SIK2; type: biochemical; details: for IC50: ATP 1.0 μM, substrate RBER-CHKtide; for inhibiting SIK2 compared to PY1: in words
Method: (§1) The IC50s of the compounds against the SIK family of protein-serine/threonine kinases (SIK2 and SIK3) were determined as followed. Briefly, a radiometric protein kinase assay (33PanQinase® Activity Assay) was used for measuring the kinase activity of the two protein kinases. The kinase assays were performed in 96-well FlashPlates™ from PerkinElmer (Boston, Mass., USA) in a 50 uL reaction volume. The reaction cocktail was pipetted in four steps in the following order: • […] (standard buffer/[gamma-33P]-ATP) • 10 uL of ATP solution (in water) • 5 uL of test compound (in 10% DMSO) • 20 uL enzyme/substrate mix
(§2) The following amounts of enzyme and applicable substrate were used per well:
(§3) The reaction cocktails were incubated at 30 °C for 60 minutes. The reaction was stopped with 50 uL of 2% (v/v) H3PO4, plates were aspirated and washed two times with 200 μL 0.9% (w/v) NaCl. Incorporation of 33Pi was determined with a microplate scintillation counter (Microbeta, Wallac). All assays were performed with a BeckmanCoulter/SAGIAN™ Core System.

SIK3 = SIK3 (Homo sapiens, UniProt Q9Y2K2); test: radiometric protein kinase assay (33PanQinase Activity Assay), SIK3; type: biochemical; details: for IC50: ATP 1.0 μM, substrate RBER-CHKtide; for inhibiting SIK3 compared to PY1 / selectivity towards SIK3 over SIK2: in words
Method: as §1, §2, §3

PANC1 tumour cells = test: TNF-sensitised cell viability assay (CellTiter-Glo), PANC1; type: cell-based, human; details: for IC50: Homo sapiens, PANC-1, read-out: PANC IC50 (at 100 ng/ml rHuTNF), 100 ng/ml rHuTNF, 72 h; for sensitisation of PANC tumour cells to the cytotoxic effects of TNF compared to PY1: in words
Method: (§4) Cell viability of HCT116 tumour cells was measured using the CellTiter-Glo (CTG) luminescent cell viability assay (Promega, Madison, USA) according to the manufacturer's protocol. In short, 1×10^3 HCT116 cells were seeded in a 384-well plate for 24 h and subsequently treated with different concentrations of compounds and 10 ng/ml rHuTNF for 72 h at 37° C. and 5% CO2. After incubation, CTG reagent was added to the wells and cells were lysed for 10 min. Read-out was performed using the Tecan reader with 0.1 sec counting time. TNF-induced cell killing in human PANC1 and murine MC38 tumour cells was measured analogously to the assay in human HCT116 cells, except that for the PANC1 assay 100 ng/ml rHuTNF and for the MC38 assay 100 ng/ml rMuTNF were used.

HCT116 tumour cells = test: TNF-sensitised cell viability assay (CellTiter-Glo), HCT116; type: cell-based, human; details: for IC50: Homo sapiens, HCT-116, read-out: HCT116 IC50 (at 10 ng/ml rHuTNF), 10 ng/ml rHuTNF, 72 h; for sensitisation of HCT116 tumour cells to the cytotoxic effect of TNF compared to PY1: in words
Method: as §4

MC38 tumour cells = test: TNF-sensitised cell viability assay (CellTiter-Glo), MC38; type: cell-based, murine; details: for IC50: Mus musculus, MC-38, read-out: MC38 IC50 (at 100 ng/ml rMuTNF), 100 ng/ml rMuTNF, 72 h
Method: as §4

[1] = biological target: 335 wild-type protein kinases; test: single-point inhibition assays, residual activity (ProQinase Kinase Profiler); type: biochemical; details: single-point 0.1 uM and 1 uM, 335 kinases
Method: Several compounds of Formula (I) described herein were also tested in single-point (0.1 uM and 1 uM) inhibition assays over a diverse set of 335 wild-type protein (ProQinase “Kinase Profiler”; ProQinase, Freiburg, Germany), in which the residual activity of each kinase was determined. […] Secondly, the residual activity of each kinase was compared to other compounds tested (in particular, against the prior art compounds PY1) by use of scatter plots.

Chain of SIK3 (Q9Y2K2 whole entry): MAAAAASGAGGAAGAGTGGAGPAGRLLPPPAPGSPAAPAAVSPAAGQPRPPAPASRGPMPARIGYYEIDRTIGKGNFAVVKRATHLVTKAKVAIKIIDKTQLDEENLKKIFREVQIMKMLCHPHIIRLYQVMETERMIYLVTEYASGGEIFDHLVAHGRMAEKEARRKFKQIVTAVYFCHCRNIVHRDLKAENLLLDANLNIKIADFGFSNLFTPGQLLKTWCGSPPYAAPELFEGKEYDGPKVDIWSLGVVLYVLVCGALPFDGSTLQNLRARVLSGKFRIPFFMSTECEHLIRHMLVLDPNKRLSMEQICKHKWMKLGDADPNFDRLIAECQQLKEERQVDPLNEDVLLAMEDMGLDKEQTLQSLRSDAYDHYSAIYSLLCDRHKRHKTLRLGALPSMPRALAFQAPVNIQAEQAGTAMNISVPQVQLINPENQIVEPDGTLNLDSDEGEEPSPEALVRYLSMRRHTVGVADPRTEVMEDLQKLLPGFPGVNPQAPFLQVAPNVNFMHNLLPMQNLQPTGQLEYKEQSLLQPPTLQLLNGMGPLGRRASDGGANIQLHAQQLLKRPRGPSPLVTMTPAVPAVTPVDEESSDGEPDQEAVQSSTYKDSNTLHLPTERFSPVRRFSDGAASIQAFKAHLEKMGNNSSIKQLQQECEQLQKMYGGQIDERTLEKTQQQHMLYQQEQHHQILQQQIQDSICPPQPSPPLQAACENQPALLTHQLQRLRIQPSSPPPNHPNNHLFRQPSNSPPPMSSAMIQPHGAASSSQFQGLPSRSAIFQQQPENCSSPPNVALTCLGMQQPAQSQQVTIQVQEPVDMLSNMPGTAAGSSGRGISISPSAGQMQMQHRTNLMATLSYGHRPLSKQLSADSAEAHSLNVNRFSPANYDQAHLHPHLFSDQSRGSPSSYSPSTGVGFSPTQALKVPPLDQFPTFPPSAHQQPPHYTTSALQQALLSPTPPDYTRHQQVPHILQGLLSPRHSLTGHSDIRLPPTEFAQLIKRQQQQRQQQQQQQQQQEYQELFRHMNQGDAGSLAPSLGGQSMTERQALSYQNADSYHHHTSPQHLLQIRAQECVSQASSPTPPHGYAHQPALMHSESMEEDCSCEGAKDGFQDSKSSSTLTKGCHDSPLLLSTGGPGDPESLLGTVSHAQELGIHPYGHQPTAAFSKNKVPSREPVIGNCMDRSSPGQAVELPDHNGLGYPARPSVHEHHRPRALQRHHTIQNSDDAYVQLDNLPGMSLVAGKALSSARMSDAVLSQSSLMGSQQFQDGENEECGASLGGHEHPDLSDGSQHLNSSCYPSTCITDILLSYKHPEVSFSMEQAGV
Chain of SIK2 (Q9H0K1 whole entry): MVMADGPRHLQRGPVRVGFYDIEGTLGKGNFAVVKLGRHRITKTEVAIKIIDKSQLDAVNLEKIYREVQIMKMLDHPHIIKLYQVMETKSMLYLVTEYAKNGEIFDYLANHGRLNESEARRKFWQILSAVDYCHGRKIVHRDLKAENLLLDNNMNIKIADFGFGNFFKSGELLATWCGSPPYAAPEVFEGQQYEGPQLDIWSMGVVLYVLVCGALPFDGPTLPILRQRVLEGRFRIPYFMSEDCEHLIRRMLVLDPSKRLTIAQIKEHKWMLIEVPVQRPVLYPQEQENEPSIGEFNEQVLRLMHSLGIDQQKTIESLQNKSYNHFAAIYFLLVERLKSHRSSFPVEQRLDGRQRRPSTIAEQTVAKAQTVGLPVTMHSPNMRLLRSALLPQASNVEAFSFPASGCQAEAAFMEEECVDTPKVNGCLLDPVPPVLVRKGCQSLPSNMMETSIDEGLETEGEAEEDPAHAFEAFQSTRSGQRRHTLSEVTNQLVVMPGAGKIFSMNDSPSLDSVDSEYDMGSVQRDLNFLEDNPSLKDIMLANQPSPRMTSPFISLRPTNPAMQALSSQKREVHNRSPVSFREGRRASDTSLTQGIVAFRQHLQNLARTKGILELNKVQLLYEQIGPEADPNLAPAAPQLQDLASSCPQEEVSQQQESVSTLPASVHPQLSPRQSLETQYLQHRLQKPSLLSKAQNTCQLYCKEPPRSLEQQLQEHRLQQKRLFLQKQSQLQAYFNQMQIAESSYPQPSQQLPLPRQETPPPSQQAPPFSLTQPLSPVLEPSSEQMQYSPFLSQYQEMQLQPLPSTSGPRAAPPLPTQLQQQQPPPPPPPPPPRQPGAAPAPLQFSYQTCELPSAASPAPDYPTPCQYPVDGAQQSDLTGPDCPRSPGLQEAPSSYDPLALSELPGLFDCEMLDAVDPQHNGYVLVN

Structure (SMILES)	IC50 (SIK2) [nM]	IC50 (SIK3) [nM]	IC50 (PANC1 tumour cells) [µM]	sensitisation of PANC tumour cells to the cytotoxic effects of TNF compared to PY1 (PANC1 tumour cells)	IC50 (HCT116 tumour cells) [µM]	sensitisation of HCT116 tumour cells to the cytotoxic effect of TNF compared to PY1 (HCT116 tumour cells)	IC50 (MC38 tumour cells) [µM]	sensitisation of MC38 tumour cells to the cytotoxic effect of TNF (MC38 tumour cells; in words)	inhibiting SIK2 compared to PY1 (SIK2)	inhibiting SIK3 compared to PY1 (SIK3)	selectivity towards SIK3 over SIK2 (SIK3)	kinases inhibited less strongly than by PY1 [1]	kinases inhibited more strongly than by PY1 [1]	overall kinase profile compared to prior art compound PY1 [1]
COc1ccc(N2C(=O)N(c3c(C)nn(C)c3C)Cc3cnc(Nc4ccc(C5CCN(C)CC5)cc4OC)nc32)nc1 [AA4, 7-((2-methoxy-4-(l-methylpiperidin-4-yl)phenyl)amino)-1-(5-methoxypyridin-2-yl)-3-(1,3,5-trimethyl-lH-pyrazol-4-yl)-3,4-dihydropyrimido[4,5-d]pyrimidin-2(1H)-one]	5000 to 10000	> 10000	–	–	–	–	–	–	–	–	–	–	–	–
COc1ccc(N2C(=O)N(c3c(CF)csc3Cl)Cc3cnc(Nc4ccc(C5CCN(C)CC5)cc4OC)nc32)nc1 [AA7, 3-(2-chloro-4-(fluoromethyl)thiophen-3-yl)-7-((2-methoxy-4-(l-methylpiperidin-4-yl)phenyl)amino)-1-(5-methoxypyridin-2-yl)-3,4-dihydropyrimido[4,5-d]pyrimidin-2(1H)-one]	50 to 100	100 to 200	0.1 to 0.5	stronger effect than PY1	< 0.1	much stronger effect compared to the prior art compound PY1	0.1 to 0.5	surprisingly potent at sensitising cells to the cytotoxic effect of TNF	–	–	–	–	–	–
COc1ccc(N2C(=O)N(c3c(CF)csc3Cl)Cc3cnc(Nc4ccc(C5CC(C)N(C)C(C)C5)cc4)nc32)nc1 (stereo not drawn) [AA8, 3-(2-chloro-4-(fluoromethyl)thiophen-3-yl)-1-(5-methoxypyridin-2-yl)-7-((4-(l,2,6-trimethylpiperidin-4-yl)phenyl)amino)-3,4-dihydropyrimido[4,5-d]pyrimidin-2(lH)-one]	< 50	< 50	0.1 to 0.5	stronger effect than PY1	< 0.1	much stronger effect compared to the prior art compound PY1	0.5 to 1	–	superior in inhibiting SIK2 and SIK3 compared to PY1	superior in inhibiting SIK2 and SIK3 compared to PY1	–	–	–	–
COc1ccc(N2C(=O)N(c3c(CF)csc3Cl)Cc3cnc(Nc4ccc(C5CCN(C)C(C)C5)cc4)nc32)nc1 (stereo not drawn) [AA9, 3-(2-chloro-4-(fluoromethyl)thiophen-3-yl)-7-((4-(l,2-dimethylpiperidin-4-yl)phenyl)amino)-1-(5-methoxypyridin-2-yl)-3,4-dihydropyrimido[4,5-d]pyrimidin-2(1H)-one]	< 50	< 50	0.5 to 1	–	< 0.1	much stronger effect compared to the prior art compound PY1	0.5 to 1	–	superior in inhibiting SIK2 and SIK3 compared to PY1	superior in inhibiting SIK2 and SIK3 compared to PY1	–	–	–	–
COc1ccc(N2C(=O)N(c3c(CF)csc3Cl)Cc3cnc(Nc4ccc(C5CCN(C)CC5)cc4OC)nc32)cc1 [AA10, 3-(2-chloro-4-(fluoromethyl)thiophen-3-yl)-7-((2-methoxy-4-(1-methylpiperidin-4-yl)phenyl)amino)-1-(4-methoxyphenyl)-3,4-dihydropyrimido[4,5-d]pyrimidin-2(1H)-one]	50 to 100	100 to 200	1 to 1.5	–	1 to 1.5	–	1 to 1.5	–	–	–	–	–	–	–
COc1cc(C2CCN(C)CC2)ccc1Nc1ncc2c(n1)N(C)C(=O)N(c1c(CF)csc1Cl)C2 [AA11, 3-(2-chloro-4-(fluoromethyl)thiophen-3-yl)-7-((2-methoxy-4-(1-methylpiperidin-4-yl)phenyl)amino)-1-methyl-3,4-dihydropyrimido[4,5-d]pyrimidin-2(1H)-one]	100 to 200	< 50	> 1.5	–	> 1.5	–	1 to 1.5	–	–	–	increased selectively towards SIK3 over SIK2	BMX, TEC and in particular BTK	BRAF, NEK2, PRK2, PKC, and in particular KIT, RIPK2, ABL2 and PDGF-alpha	substantially different profile of inhibition of the kinases compared to the prior art compound PY1
COCCN1C(=O)N(c2c(CF)csc2Cl)Cc2cnc(Nc3ccc(C4CCN(C)CC4)cc3OC)nc21 [AA12, 3-(2-chloro-4-(fluoromethyl)thiophen-3-yl)-7-((2-methoxy-4-(1-methylpiperidin-4-yl)phenyl)amino)-1-(2-methoxyethyl)-3,4-dihydropyrimido[4,5-d]pyrimidin-2(1H)-one]	< 50	< 50	–	–	> 1.5	–	1 to 1.5	–	superior in inhibiting SIK2 and SIK3 compared to PY1	superior in inhibiting SIK2 and SIK3 compared to PY1	increased selectively towards SIK3 over SIK2	–	–	–
COc1ccc(N2C(=O)N(c3c(C(F)F)csc3Cl)Cc3cnc(Nc4ccc(C5CCN(C)CC5)cc4OC)nc32)nc1 [AA13, 3-(2-chloro-4-(difluoromethyl)thiophen-3-yl)-7-((2-methoxy-4-(1-methylpiperidin-4-yl)phenyl)amino)-1-(5-methoxypyridin-2-yl)-3,4-dihydropyrimido[4,5-d]pyrimidin-2(1H)-one]	100 to 200	100 to 200	> 1.5	–	> 1.5	–	1 to 1.5	–	–	–	increased selectively towards SIK3 over SIK2	–	–	–
